# Legend:
# Assay in all cases: relative viability (nuclei count vs DMSO), 5 days (fraction); higher = more cells survive
# [1] = tested on: NCI-H2023
# Method in brief: (§1)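 Dosing by pin tool came one day after lung cancer cell lines were seeded in 1536-well plates, using either one drug or a fixed anchor-drug dose plus five library-drug doses (not always all listed) in √10 steps. After 5 days, nuclei were counted on 4× images. Relative viability is treated-well nuclei count divided by vehicle-well nuclei count, and values are medians of duplicate plates.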
# [2] = tested on: NCI-H2405
# Method in brief: as §1
# [3] = tested on: NCI-H2170
# Method in brief: as §1
# [4] = tested on: NCI-H1734
# Method in brief: as §1
# [5] = tested on: NCI-H647
# Method in brief: as §1
# [6] = tested on: LOU-NH91
# Method in brief: as §1
# [7] = tested on: EPLC-272H
# Method in brief: as §1
# [8] = tested on: SW 900
# Method in brief: as §1
# [9] = tested on: PC-14
# Method in brief: as §1
# [10] = tested on: NCI-H1793
# Method in brief: as §1
# [11] = tested on: NCI-H2347
# Method in brief: as §1
# [12] = tested on: NCI-H441
# Method in brief: as §1
# [13] = tested on: HCC-15
# Method in brief: as §1
# [14] = tested on: NCI-H3122
# Method in brief: as §1
# [15] = tested on: COR-L23
# Method in brief: as §1
# [16] = tested on: NCI-H322M
# Method in brief: as §1
# [17] = tested on: H3255
# Method in brief: as §1
# [18] = tested on: UMC-11
# Method in brief: as §1
# [19] = tested on: NCI-H520
# Method in brief: as §1
# [20] = tested on: NCI-H1650
# Method in brief: as §1
# [21] = tested on: 201T
# Method in brief: as §1
smiles,measurement,setting,value
O=c1cc(N2CCOCC2)oc2c(-c3cccc4c3sc3ccccc34)cccc12 + Nc1ncn([C@H]2C[C@H](O)[C@@H](CO)O2)c(=O)n1 [Decitabine] (partner 2 µM),relative viability,[1]; first compound 0.01 µM,0.252
same,relative viability,[1]; first compound 0.03162 µM,0.224
same,relative viability,[1]; first compound 0.1 µM,0.248
same,relative viability,[1]; first compound 0.3162 µM,0.251
same,relative viability,[1]; first compound 1 µM,0.232
same,relative viability,[2]; first compound 0.01 µM,0.82
same,relative viability,[2]; first compound 0.03162 µM,0.715
same,relative viability,[2]; first compound 0.1 µM,0.812
same,relative viability,[2]; first compound 0.3162 µM,0.76
same,relative viability,[2]; first compound 1 µM,0.788
same,relative viability,[3]; first compound 0.01 µM,0.472
same,relative viability,[3]; first compound 0.03162 µM,0.447
same,relative viability,[3]; first compound 0.1 µM,0.475
same,relative viability,[3]; first compound 0.3162 µM,0.457
same,relative viability,[3]; first compound 1 µM,0.461
same,relative viability,[4]; first compound 0.01 µM,0.584
same,relative viability,[4]; first compound 0.03162 µM,0.508
same,relative viability,[4]; first compound 0.1 µM,0.536
same,relative viability,[4]; first compound 0.3162 µM,0.498
same,relative viability,[4]; first compound 1 µM,0.517
same,relative viability,[5]; first compound 0.01 µM,0.318
same,relative viability,[5]; first compound 0.03162 µM,0.356
same,relative viability,[5]; first compound 0.1 µM,0.382
same,relative viability,[5]; first compound 0.3162 µM,0.419
same,relative viability,[5]; first compound 1 µM,0.371
same,relative viability,[6]; first compound 0.01 µM,0.774
same,relative viability,[6]; first compound 0.03162 µM,0.794
same,relative viability,[6]; first compound 0.1 µM,0.83
same,relative viability,[6]; first compound 0.3162 µM,0.827
same,relative viability,[6]; first compound 1 µM,0.784
same,relative viability,[7]; first compound 0.01 µM,0.392
same,relative viability,[7]; first compound 0.03162 µM,0.398
same,relative viability,[7]; first compound 0.1 µM,0.329
same,relative viability,[7]; first compound 0.3162 µM,0.359
same,relative viability,[7]; first compound 1 µM,0.376
same,relative viability,[8]; first compound 0.03162 µM,0.435
same,relative viability,[8]; first compound 0.1 µM,0.471
same,relative viability,[8]; first compound 0.3162 µM,0.459
same,relative viability,[8]; first compound 1 µM,0.456
same,relative viability,[9]; first compound 0.01 µM,0.274
same,relative viability,[9]; first compound 0.03162 µM,0.272
same,relative viability,[9]; first compound 0.1 µM,0.191
same,relative viability,[9]; first compound 0.3162 µM,0.267
same,relative viability,[9]; first compound 1 µM,0.267
same,relative viability,[10]; first compound 0.01 µM,0.503
same,relative viability,[10]; first compound 0.03162 µM,0.502
same,relative viability,[10]; first compound 0.1 µM,0.564
same,relative viability,[10]; first compound 0.3162 µM,0.54
same,relative viability,[10]; first compound 1 µM,0.443
same,relative viability,[11]; first compound 0.01 µM,0.606
same,relative viability,[11]; first compound 0.03162 µM,0.632
same,relative viability,[11]; first compound 0.1 µM,0.609
same,relative viability,[11]; first compound 0.3162 µM,0.641
same,relative viability,[11]; first compound 1 µM,0.603
same,relative viability,[12]; first compound 0.01 µM,0.279
same,relative viability,[12]; first compound 0.03162 µM,0.255
same,relative viability,[12]; first compound 0.1 µM,0.26
same,relative viability,[12]; first compound 0.3162 µM,0.208
same,relative viability,[12]; first compound 1 µM,0.228
same,relative viability,[13]; first compound 0.01 µM,0.632
same,relative viability,[13]; first compound 0.03162 µM,0.639
same,relative viability,[13]; first compound 0.1 µM,0.774
same,relative viability,[13]; first compound 0.3162 µM,0.59
same,relative viability,[13]; first compound 1 µM,0.724
same,relative viability,[14]; first compound 0.01 µM,0.405
same,relative viability,[14]; first compound 0.03162 µM,0.436
same,relative viability,[14]; first compound 0.1 µM,0.564
same,relative viability,[14]; first compound 0.3162 µM,0.452
same,relative viability,[14]; first compound 1 µM,0.388
same,relative viability,[15]; first compound 0.01 µM,0.515
same,relative viability,[15]; first compound 0.03162 µM,0.434
same,relative viability,[15]; first compound 0.1 µM,0.475
same,relative viability,[15]; first compound 0.3162 µM,0.467
same,relative viability,[15]; first compound 1 µM,0.504
same,relative viability,[16]; first compound 0.01 µM,0.683
same,relative viability,[16]; first compound 0.03162 µM,0.678
same,relative viability,[16]; first compound 0.3162 µM,0.748
same,relative viability,[16]; first compound 1 µM,0.751
same,relative viability,[17]; first compound 0.01 µM,0.598
same,relative viability,[17]; first compound 0.03162 µM,0.715
same,relative viability,[17]; first compound 0.1 µM,0.56
same,relative viability,[17]; first compound 0.3162 µM,0.604
same,relative viability,[17]; first compound 1 µM,0.533
same,relative viability,[18]; first compound 0.01 µM,0.587
same,relative viability,[18]; first compound 0.03162 µM,0.562
same,relative viability,[18]; first compound 0.1 µM,0.492
same,relative viability,[18]; first compound 0.3162 µM,0.556
same,relative viability,[18]; first compound 1 µM,0.687
same,relative viability,[19]; first compound 0.01 µM,0.59
same,relative viability,[19]; first compound 0.03162 µM,0.565
same,relative viability,[19]; first compound 0.1 µM,0.529
same,relative viability,[19]; first compound 0.3162 µM,0.557
same,relative viability,[19]; first compound 1 µM,0.525
same,relative viability,[20]; first compound 0.01 µM,0.362
same,relative viability,[20]; first compound 0.03162 µM,0.384
same,relative viability,[20]; first compound 0.1 µM,0.489
same,relative viability,[20]; first compound 0.3162 µM,0.53
same,relative viability,[20]; first compound 1 µM,0.399
same,relative viability,[21]; first compound 0.01 µM,0.843
same,relative viability,[21]; first compound 0.03162 µM,0.863
same,relative viability,[21]; first compound 0.1 µM,0.83
same,relative viability,[21]; first compound 0.3162 µM,0.86
same,relative viability,[21]; first compound 1 µM,0.818

# From the supplement of paper PMC10307832
